Data taken from patent US12337001B2, “Neutral endopeptidase (NEP) and human soluble endopeptidase (hSEP) inhibitors to reduce detrimental effects of perfusion deficiency of parenchymal organs” (priority 2018, dated 2025).

System: rats subjected to transient bilateral occlusion of the common carotid artery (BCCA)
Experiment: Open field test of exploratory performance after transient bilateral occlusion of the common carotid artery (BCCA)
Assay type: in vivo, rat
Conditions: for Ambulation / Blocks (episodes of interest in blocks) / Defecation / Grooming / Rearing: 60 mg/kg/d s.c. osmotic minipump, open field 5 min, x ± SEM
[1] = BCCA + (6) group, 60 mg/kg/d, 5 days after BCCA
[2] = BCCA + (6): BCCA 30 min, 5 days after BCCA
[3] = Control + (6) group (reference = 100)
[4] = Control + (6): sham-operated Wistar rats

## O=C(O)CN1C(=O)[C@@H](NC(=O)C2(C[C@@H](CCc3ccccc3)C(=O)O)CCCC2)CCc2ccccc21 [Compound (6), (2R)-2-{[1-({[(3S)-1-(carboxymethyl)-2-oxo-2,3,4,5-tetrahydro-1H-1-benzazepin-3-yl]amino}carbonyl)cyclopentyl]methyl}-4-phenylbutanoic acid]
[1]
  Ambulation, % of sham-operated controls: 94.81%
  Blocks (episodes of interest in blocks), % of sham-operated controls: 103.80%
  Defecation, % of sham-operated controls: 82.54%
  Grooming, % of sham-operated controls: 112.83%
  Rearing, % of sham-operated controls: 104.62%
[2]
  Ambulation: 2741 ± 4.25 (n)
  Blocks (episodes of interest in blocks): 7.64 ± 2.54 (n)
  Defecation: 1.04 ± 0.45 (n)
  Grooming: 5.98 ± 1.06 (n)
  Rearing: 12.01 ± 3.86 (n)
[3]
  Ambulation, % of Control + (6): 100%
  Blocks, % of Control + (6): 100%
  Defecation, % of Control + (6): 100%
  Grooming, % of Control + (6): 100%
  Rearing, % of Control + (6): 100%
[4]
  Ambulation: 28.91 ± 5.13 (n)
  Blocks (episodes of interest in blocks): 7.36 ± 2.85 (n)
  Defecation: 1.26 ± 0.45 (n)
  Grooming: 5.30 ± 1.57 (n)
  Rearing: 11.48 ± 3.51 (n)
Open field test, 60 mg/kg/d, result in words, 60 mg/kg/day
  Exploratory performance in rats subjected to BCCA: statistically significant improvement
